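Growth conditions: 96-well plates. Treatment: test compound, 48 hours, 5 concentrations. Analysis: linear interpolation between bracketing concentrations; unreached endpoints set to highest concentration. At the GI50, growth is halved.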 Activity calls are given as the source filed them. Cut-off read from the data, not from the text of the source: active = GI50 up to about 1.1 µM and inactive = higher.
Assays:
Experiment in all cases: DTP human tumour cell line panel, 48 h
[1] = tested on: Malme-3M
[2] = tested on: U-251
[3] = tested on: SW-620
[4] = tested on: SK-MEL-28
[5] = tested on: LOX IMVI
[6] = tested on: SN12C
[7] = tested on: OVCAR-4
[8] = tested on: SR
[9] = tested on: M14
[10] = tested on: HL-60
[11] = tested on: HOP-62
[12] = tested on: HCT-15
[13] = tested on: UO-31
[14] = tested on: A498
[15] = tested on: K562
[16] = tested on: NCI-H23
[17] = tested on: KM12
[18] = tested on: CAKI-1

Row | SMILES | GI50 [1] | GI50 [2] | GI50 [3] | GI50 [4] | GI50 [5] | GI50 [6] | GI50 [7] | GI50 [8] | GI50 [9] | GI50 [10] | GI50 [11] | GI50 [12] | GI50 [13] | GI50 [14] | GI50 [15] | GI50 [16] | GI50 [17] | GI50 [18]
1 | Oc1cc(-c2ccc[nH]2)nc2cc3c(cc12)OCO3 | 17.1 µM (inactive) | 65.9 µM (inactive) | 21.6 µM (inactive) | 65.2 µM (inactive) | 64.1 µM (inactive) | 49 µM (inactive) | 21 µM (inactive) | 37.2 µM (inactive) | 32.2 µM (inactive) | 26.9 µM (inactive) | 17.6 µM (inactive) | 23.2 µM | 56.5 µM (inactive) | 18.6 µM (inactive) | 17.1 µM (inactive) | – | – | –
2 | CN1c2ccccc2C(=O)NC12CCN(CC1COc3ccccc3O1)CC2 (configuration not stated) | 33 µM (inactive) | 40.2 µM (inactive) | 77.8 µM (inactive) | 55.3 µM (inactive) | 45.1 µM (inactive) | – | 29.9 µM (inactive) | 23.8 µM (inactive) | 27.8 µM (inactive) | 25.4 µM (inactive) | 49.8 µM (inactive) | – | 16.9 µM (inactive) | 20.3 µM (inactive) | 31.3 µM (inactive) | 45.8 µM (inactive) | 32.6 µM (inactive) | –
3 | Cc1cc(N(CCC#N)S(=O)(=O)c2ccccc2)ccc1/C=C1N=C(/C=C/c2ccccc2)OC\1=O | > 100 µM (inactive) | > 100 µM (inactive) | > 100 µM (inactive) | > 100 µM (inactive) | > 100 µM (inactive) | > 100 µM (inactive) | – | – | > 100 µM (inactive) | > 100 µM (inactive) | > 100 µM (inactive) | > 100 µM | 70.8 µM (inactive) | > 100 µM (inactive) | 94.6 µM (inactive) | > 100 µM (inactive) | > 100 µM (inactive) | > 100 µM (inactive)
4 | COc1cc(-c2cccs2)sc1-c1cccs1 | 39 µM (inactive) | 43.6 µM (inactive) | 71.1 µM (inactive) | 34 µM (inactive) | 46.2 µM (inactive) | 81.8 µM (inactive) | 50.2 µM (inactive) | 17.7 µM (inactive) | 35.3 µM (inactive) | 14.3 µM (inactive) | – | 4.4 µM | 38.2 µM (inactive) | – | 13.6 µM (inactive) | 15.7 µM (inactive) | 27.7 µM (inactive) | –
5 | COc1ccc(/C=C2\C(=O)N(C(=O)c3ccc(NC(C)=O)cc3)N=C2C)cc1OC | > 100 µM (inactive) | – | > 100 µM (inactive) | > 100 µM (inactive) | > 100 µM (inactive) | > 100 µM (inactive) | > 100 µM (inactive) | > 100 µM (inactive) | > 100 µM (inactive) | > 100 µM (inactive) | > 100 µM (inactive) | > 100 µM | > 100 µM (inactive) | – | > 100 µM (inactive) | > 100 µM (inactive) | > 100 µM (inactive) | > 100 µM (inactive)
6 | O=C(Nc1nnn[nH]1)c1nc(O)cc(-c2ccccc2)n1 | > 100 µM (inactive) | > 100 µM (inactive) | > 100 µM (inactive) | > 100 µM (inactive) | – | > 100 µM (inactive) | > 100 µM (inactive) | > 100 µM (inactive) | > 100 µM (inactive) | > 100 µM (inactive) | > 100 µM (inactive) | – | > 100 µM (inactive) | > 100 µM (inactive) | > 100 µM (inactive) | > 100 µM (inactive) | > 100 µM (inactive) | > 100 µM (inactive)
7 | CCOC(=O)C1=C(C)N(NC(N)=O)C2(N)N(NC(N)=O)C(C)=C(C(=O)OCC)C12C(=O)OCC (configuration not stated) | > 100 µM (inactive) | > 100 µM (inactive) | > 100 µM (inactive) | > 100 µM (inactive) | > 100 µM (inactive) | > 100 µM (inactive) | > 100 µM (inactive) | > 100 µM (inactive) | > 100 µM (inactive) | – | > 100 µM (inactive) | > 100 µM | > 100 µM (inactive) | > 100 µM (inactive) | > 100 µM (inactive) | – | > 100 µM (inactive) | > 100 µM (inactive)
8 | O=[N+]([O-])c1nccn1COCCBr | > 100 µM (inactive) | > 100 µM (inactive) | > 100 µM (inactive) | > 100 µM (inactive) | > 100 µM (inactive) | > 100 µM (inactive) | > 100 µM (inactive) | > 100 µM (inactive) | > 100 µM (inactive) | > 100 µM (inactive) | > 100 µM (inactive) | > 100 µM | > 100 µM (inactive) | – | > 100 µM (inactive) | > 100 µM (inactive) | > 100 µM (inactive) | > 100 µM (inactive)
9 | Nc1ncc(CN2CCCC2)c(-c2ccccc2O)n1 | > 750 µM (inactive) | > 750 µM (inactive) | > 750 µM (inactive) | > 750 µM (inactive) | 38.4 µM (inactive) | > 750 µM (inactive) | > 750 µM (inactive) | > 750 µM (inactive) | > 750 µM (inactive) | 4.31 µM (inactive) | > 750 µM (inactive) | > 750 µM | > 750 µM (inactive) | > 750 µM (inactive) | 4.51 µM (inactive) | > 750 µM (inactive) | > 750 µM (inactive) | > 750 µM (inactive)
10 | CCOC(=O)C1(Cc2ccccc2)CCCCCN1 (configuration not stated) | 50.1 µM (inactive) | > 100 µM (inactive) | > 100 µM (inactive) | > 100 µM (inactive) | > 100 µM (inactive) | > 100 µM (inactive) | > 100 µM (inactive) | – | > 100 µM (inactive) | > 100 µM (inactive) | > 100 µM (inactive) | > 100 µM | > 100 µM (inactive) | – | > 100 µM (inactive) | > 100 µM (inactive) | – | > 100 µM (inactive)
11 | C=CCCCCCCCCC(=O)NS(=O)(=O)c1ccccc1 | > 100 µM (inactive) | 77.4 µM (inactive) | > 100 µM (inactive) | 99.3 µM (inactive) | > 100 µM (inactive) | > 100 µM (inactive) | > 100 µM (inactive) | – | > 100 µM (inactive) | 44.7 µM (inactive) | > 100 µM (inactive) | – | 30.7 µM (inactive) | > 100 µM (inactive) | 54.5 µM (inactive) | > 100 µM (inactive) | 73.6 µM (inactive) | > 100 µM (inactive)
12 | CC(C)c1ccccc1NC(=O)/C(Cl)=C1/Sc2ccccc2NC1=O | 20 µM (inactive) | 35 µM (inactive) | 25.2 µM (inactive) | 33.4 µM (inactive) | 29.2 µM (inactive) | 34 µM (inactive) | 21.9 µM (inactive) | – | 22.4 µM (inactive) | 21.2 µM (inactive) | 30.8 µM (inactive) | 22.8 µM | 32.8 µM (inactive) | 32.6 µM (inactive) | 14.8 µM (inactive) | 19.6 µM (inactive) | – | 17.5 µM (inactive)
13 | COc1ccc(C=O)c([N+](=O)[O-])c1 | 21.5 µM (inactive) | 13.2 µM (inactive) | 8.24 µM (inactive) | > 100 µM (inactive) | 22.1 µM (inactive) | 41.7 µM (inactive) | 76.6 µM (inactive) | – | 38.1 µM (inactive) | 4.2 µM (inactive) | 40.7 µM (inactive) | 9.27 µM | 37.7 µM (inactive) | > 100 µM (inactive) | 3.71 µM (inactive) | > 100 µM (inactive) | 22.8 µM (inactive) | –
14 | CCOC(=O)C1S/C(=N/c2ccc(Cl)cc2C)N=C1C (configuration not stated) | 20.2 µM (inactive) | 15.8 µM (inactive) | 22.3 µM (inactive) | 25.2 µM (inactive) | 15 µM (inactive) | 18.5 µM (inactive) | 19.9 µM (inactive) | – | 19.5 µM (inactive) | 4.34 µM (inactive) | 24.8 µM (inactive) | 18.5 µM | 17.3 µM (inactive) | 37.1 µM (inactive) | 17.7 µM (inactive) | 16.5 µM (inactive) | 15.5 µM (inactive) | 20.7 µM (inactive)
15 | Nc1nc(N)c2ncn(CCCC(c3ccccc3)P(=O)(O)O)c2n1 (configuration not stated) | > 100 µM (inactive) | > 100 µM (inactive) | > 100 µM (inactive) | > 100 µM (inactive) | > 100 µM (inactive) | > 100 µM (inactive) | – | > 100 µM (inactive) | > 100 µM (inactive) | > 100 µM (inactive) | > 100 µM (inactive) | > 100 µM | > 100 µM (inactive) | > 100 µM (inactive) | > 100 µM (inactive) | 19.2 µM (inactive) | > 100 µM (inactive) | > 100 µM (inactive)
16 | COc1ccc(C2Oc3c(cc(O)c(OC)c3C)[C@@H]2C)cc1OC (some centres not stated) | > 100 µM (inactive) | > 100 µM (inactive) | 71 µM (inactive) | > 100 µM (inactive) | 82.6 µM (inactive) | – | 42.4 µM (inactive) | – | > 100 µM (inactive) | 50.2 µM (inactive) | > 100 µM (inactive) | > 10 µM | 66.5 µM (inactive) | > 100 µM (inactive) | 47.9 µM (inactive) | > 100 µM (inactive) | > 100 µM (inactive) | 37.2 µM (inactive)
17 | C/C(=N\NC(=O)C[n+]1ccccc1)c1sc(-c2nc(C)c(/C(C)=N/NC(=O)C[n+]3ccccc3)s2)nc1C | > 100 µM (inactive) | > 100 µM (inactive) | > 100 µM (inactive) | > 100 µM (inactive) | > 100 µM (inactive) | > 100 µM (inactive) | – | – | > 100 µM (inactive) | – | > 100 µM (inactive) | 37.7 µM | > 100 µM (inactive) | > 100 µM (inactive) | 41.1 µM (inactive) | > 100 µM (inactive) | > 100 µM (inactive) | > 100 µM (inactive)

Reference: ChEMBL document CHEMBL1201862, “PubChem BioAssay data set” (2004)
